{"source": "patent US9040501B2", "about": "“Compositions and methods for treating cancer” (Eisai Inc., priority 2009, dated 2015)", "key": {"[1]": {"system": "A2780 human ovarian cancer xenograft", "assay": "In vivo efficacy study in A2780 human ovarian cancer xenograft model", "parameters": "species or system female nude mice", "settings": "qdx5 for two weeks", "method": "Animals were dosed daily from Monday to Friday for two weeks.\nFemale nude mice (NU/NU, strain code 088, 6 weeks old, Charles River Laboratory) were implanted subcutaneously with 5×10^6 A2780 cancer cells per mouse. On day 13 when the tumors were approximately 150 mm^3, treatment started as described in Table 9.\nTumor volume and regressions were followed over time. Tumor volume was calculated by (length×width^2)/2. Note that a complete regression was defined as no measurable tumor for at least 3 consecutive measurements; while a partial regression was defined as tumor shrinkage to equal or less than 50% of original tumor volume for 3 consecutive measurements. Tumor growth delay (TGD) was defined as the median number of days for the control and treatment groups to grow to 342.14 mm^3. The average tumor volume on the first day of treatment (day 13) is 171.07 mm^3."}, "[2]": {"system": "murine lymphoma L1210", "settings": "ER-876437 10 mg/kg/Veh", "procedure": "Or, a stock of L1210 ascites in BSA solution was diluted to 1×10^4 cells/0.1 ml for use in the study mice.\n(§1) The mice were prepared with intravenous (IV) injection of L1210 ascites (prepared as described above) one day prior to commencing the dosing. […] The total IV injection for all mice took about 50 minutes.\nAll solutions were stored on ice while dosing. Mice were dosed (intraperitoneally (IP) or per os (orally, PO)) twice a day (8 hours apart) for 4 consecutive days.\n(§2) Dead mice were autopsied and observed for the presence of tumors in organs."}, "[3]": {"molecular_target": "cytidine deaminase (CDA) (Homo sapiens (Human), UniProt P32320)", "sequence (P32320 whole entry)": "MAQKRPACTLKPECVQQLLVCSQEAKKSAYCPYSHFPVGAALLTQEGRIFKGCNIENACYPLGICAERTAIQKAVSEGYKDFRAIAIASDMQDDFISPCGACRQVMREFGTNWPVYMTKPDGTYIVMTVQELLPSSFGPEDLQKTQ", "assay": "Effect of ER-876437 on the half-life of cytarabine in the presence of CDA in Tris-HCl buffer at 37° C."}, "[4]": {"system": "murine lymphoma L1210", "procedure": "Preparation of L1210 Cells: L1210 ascitic cells were prepared by passaging them in mice at least three times as follows. Each CD2F1 female mouse was intraperitoneally (IP) injected with about 10^5 L1210 ascitic cells. After one week, the mouse was sacrificed (asphyxiation via CO2). The mouse was placed on its back, its belly surface was cleaned with alcohol wipes, and a small incision was made into the peritoneal cavity. […] Diluted ascites (diluted 1:10 again) were counted on a hematocytometer and the number of cells per mL was calculated. About 10^5 L1210 cells were used for a subsequent passage for another mouse passage. Or, a stock of L1210 ascites in BSA solution was diluted to 1×10^4 cells/0.1 ml for use in the study mice.\nas §1\nDecitabine was prepared fresh twice a day, just prior to dosing. All solutions were stored on ice while dosing. Mice were dosed (intraperitoneally (IP) or per os (orally, PO)) twice a day (8 hours apart) for 4 consecutive days.\nas §2\nPreparation of study mice with IV injection of L1210 ascites took about 60 minutes. […] All solutions were stored on ice while dosing. Mice were dosed (IP or PO) twice a day (7 or 8 hours apart) for 4 consecutive days."}, "[5]": {"settings": "ER-876437 1.0 mg/kg/Veh, on autopsy"}}, "note": "Read-outs that look alike come from different tables or passages of the source."}
{"molecule": "O=C1NCC=CCN1[C@@H]1O[C@H](CO)[C@@H](O)C1(F)F", "note": "[ER-876437, 1-((2R,4R,5R)-3,3-difluoro-4-hydroxy-5-(hydroxymethyl)tetrahydrofuran-2-yl)-3,4-dihydro-1H-1,3-diazepin-2(7H)-one]", "values": [{"measurement": "regressions or tumor free survivors at day 41", "setting": "[1]; gemcitabine 1 mg/kg PO alone or ER-876437 10 mg/kg PO alone", "result": "no regressions or tumor free survivors"}, {"measurement": "effect on tumor growth (FIG. 3)", "setting": "[1]; gemcitabine 1 mg/kg PO and/or ER-876437 10 mg/kg PO (30 minutes prior)", "result": "no effect at all"}, {"measurement": "TGD (tumor growth delay)", "setting": "[1]; gemcitabine 1 mg/kg PO and/or ER-876437 10 mg/kg PO (30 minutes prior), delay vs vehicle to reach 342.14 mm^3", "result": 2, "unit": "days"}, {"measurement": "Mean Liver wts (g) ± SD", "setting": "[2]; on autopsy", "result": "2.02 ± 0.07", "unit": "g"}, {"measurement": "Mean Spleen wts (g) ± SD", "setting": "[2]; on autopsy", "result": "0.37 ± 0.04", "unit": "g"}, {"measurement": "Mean Survival (days) ± SD", "setting": "[2]; twice a day (8 hours apart), 4 days", "result": "7.6 ± 0.89", "unit": "days"}, {"measurement": "% ILS (Increased Life Span)", "setting": "[2]; vs vehicle group", "result": 2.70, "unit": "%"}, {"measurement": "cytarabine remaining", "setting": "[3]; CDA plus ER-876437 in the incubation mixture, after 52 h", "result": "greater than 95%"}, {"measurement": "inhibition of the effect of CDA on T1/2 of cytarabine", "setting": "[3]; Tris-HCl buffer at 37° C.", "result": "nearly completely inhibited"}, {"measurement": "levels of ER-876437", "setting": "[3]; after 52 hours of exposure to CDA with cytarabine", "result": "not affected"}, {"measurement": "Mean Liver wts (g) ± SD", "setting": "[4]; [5]", "result": "2.04 ± 0.15", "unit": "g"}, {"measurement": "Mean Spleen wts (g) ± SD", "setting": "[4]; [5]", "result": "0.32 ± 0.02", "unit": "g"}, {"measurement": "Mean Survival (days) ± SD", "setting": "[4]; ER-876437 1.0 mg/kg/Veh, twice a day (7 hours apart), 4 days", "result": "8.4 ± 0.55", "unit": "days"}, {"measurement": "% ILS (Increased Life Span)", "setting": "[4]; ER-876437 1.0 mg/kg/Veh, vs vehicle group", "result": 5.00, "unit": "%"}, {"measurement": "minimally effective dose", "setting": "[4]; with 0.1 mg/kg decitabine PO, L1210 survival model", "result": 0.1, "unit": "mg/kg"}]}
